Assay results published in PubChem BioAssay AID256 (DTP/NCI, 2004).
Several values for one entry are separate records, joined by “and”; a condition that tells them apart may be missing. Equal values may be shown once. Toxic doses and inconclusive results are not listed.

System: CD2F1 mice, L1210 leukemia ip, survival T/C
Test: NCI In Vivo Anticancer Drug Screen. Data for tumor model L1210 Leukemia (intraperitoneal) in CD2F1 (CDF1) mice
Conditions: higher = longer survival
In short: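 In this screen, transplantable tumors were grown in mice given either the compound or its vehicle. Results were expressed as the treated measurement relative to the control measurement.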

How did the T/C (endpoint: mean survival time, dose: 0.5 mg/kg/injection, schedule: Q01DX009 (ip), vehicle: saline) turn out when `S=P(N1CC1)(N1CC1)N1CC1` was run?
The T/C was 112 % of control.

And the T/C (endpoint: mean survival time, dose: 0.5 mg/kg/injection, schedule: Q03HX024 (ip), vehicle: saline)?
Its T/C is 112 % of control.

And the T/C (endpoint: mean survival time, dose: 1.0 mg/kg/injection, schedule: Q01DX005 (iv), vehicle: saline)?
Its T/C is 101 % of control.

And the T/C (endpoint: mean survival time, dose: 1.0 mg/kg/injection, schedule: Q01DX009 (ip), vehicle: saline)?
Its T/C is 96 % of control and 112 % of control.

And the T/C (endpoint: mean survival time, dose: 1.0 mg/kg/injection, schedule: Q01DX009 (sc), vehicle: saline)?
Its T/C is 114 % of control.

And the T/C (endpoint: mean survival time, dose: 1.0 mg/kg/injection, schedule: Q03HX008 (ip), vehicle: saline)?
The T/C was 106 % of control.

What about the T/C (endpoint: mean survival time, dose: 1.0 mg/kg/injection, schedule: Q03HX016 (ip), vehicle: saline) of the same molecule?
Its T/C is 104 % of control.

And the T/C (endpoint: mean survival time, dose: 1.5 mg/kg/injection, schedule: Q01DX009 (ip), vehicle: saline)?
Its T/C is 111 % of control.

What about the T/C (endpoint: mean survival time, dose: 2.0 mg/kg/injection, schedule: Q01DX005 (iv), vehicle: saline) of the same molecule?
The T/C was 108 % of control.

What about the T/C (endpoint: mean survival time, dose: 2.0 mg/kg/injection, schedule: Q01DX009 (ip), vehicle: saline) of the same molecule?
Its T/C is 120 % of control and 122 % of control (2×).

And the T/C (endpoint: mean survival time, dose: 2.0 mg/kg/injection, schedule: Q03DX003 (ip), vehicle: saline)?
Its T/C is 112 % of control.

And the T/C (endpoint: mean survival time, dose: 2.0 mg/kg/injection, schedule: Q03HX008 (ip), vehicle: saline)?
The T/C was 118 % of control.

What about the T/C (endpoint: mean survival time, dose: 2.0 mg/kg/injection, schedule: Q03HX016 (ip), vehicle: saline) of the same molecule?
Its T/C is 117 % of control.

And the T/C (endpoint: mean survival time, dose: 2.0 mg/kg/injection, schedule: Q03HX024 (ip), vehicle: saline)?
The T/C was 88 % of control.

What about the T/C (endpoint: mean survival time, dose: 2.0 mg/kg/injection, schedule: Q04DX003 (ip), vehicle: saline) of the same molecule?
Its T/C is 101 % of control.

What about the T/C (endpoint: mean survival time, dose: 2.5 mg/kg/injection, schedule: Q04DX003 (ip), vehicle: saline) of the same molecule?
The T/C was 101 % of control.

And the T/C (endpoint: mean survival time, dose: 4.0 mg/kg/injection, schedule: Q01DX001 (iv), vehicle: saline)?
Its T/C is 117 % of control.

What about the T/C (endpoint: mean survival time, dose: 4.0 mg/kg/injection, schedule: Q01DX001 (sc), vehicle: saline) of the same molecule?
The T/C was 103 % of control.

And the T/C (endpoint: mean survival time, dose: 4.0 mg/kg/injection, schedule: Q01DX007 (ip), vehicle: saline)?
Its T/C is 158 % of control.

And the T/C (endpoint: mean survival time, dose: 4.0 mg/kg/injection, schedule: Q01DX009 (ip), vehicle: saline)?
Its T/C is 154 % of control and 166 % of control and 171 % of control.

What about the T/C (endpoint: mean survival time, dose: 4.0 mg/kg/injection, schedule: Q01DX009 (oral), vehicle: saline) of the same molecule?
The T/C was 122 % of control.

What about the T/C (endpoint: mean survival time, dose: 4.0 mg/kg/injection, schedule: Q04DX003 (ip), vehicle: saline) of the same molecule?
Its T/C is 120 % of control.

And the T/C (endpoint: mean survival time, dose: 6.0 mg/kg/injection, schedule: Q01DX001 (ip), vehicle: saline)?
Its T/C is 115 % of control.

What about the T/C (endpoint: mean survival time, dose: 7.7 mg/kg/injection, schedule: Q01DX001 (ip), vehicle: saline with Tween-80) of the same molecule?
Its T/C is 112 % of control.

What about the T/C (endpoint: mean survival time, dose: 7.7 mg/kg/injection, schedule: Q01DX001 (ip), vehicle: saline) of the same molecule?
The T/C was 123 % of control and 106 % of control.

And the T/C (endpoint: mean survival time, dose: 8.0 mg/kg/injection, schedule: Q01DX001 (ip), vehicle: saline)?
The T/C was 110 % of control.

And the T/C (endpoint: mean survival time, dose: 8.0 mg/kg/injection, schedule: Q01DX001 (sc), vehicle: saline)?
Its T/C is 115 % of control.

And the T/C (endpoint: mean survival time, dose: 8.0 mg/kg/injection, schedule: Q01DX007 (ip), vehicle: saline)?
The T/C was 110 % of control.

What about the T/C (endpoint: mean survival time, dose: 8.0 mg/kg/injection, schedule: Q01DX009 (sc), vehicle: saline) of the same molecule?
The T/C was 114 % of control.

What about the T/C (endpoint: mean survival time, dose: 8.0 mg/kg/injection, schedule: Q03DX003 (ip), vehicle: saline) of the same molecule?
The T/C was 209 % of control.

What about the T/C (endpoint: mean survival time, dose: 8.0 mg/kg/injection, schedule: Q04DX003 (ip), vehicle: saline) of the same molecule?
The T/C was 179 % of control and 183 % of control.

What about the T/C (endpoint: mean survival time, dose: 8.0 mg/kg/injection, schedule: Q08DX002 (ip), vehicle: saline) of the same molecule?
The T/C was 122 % of control.

And the T/C (endpoint: mean survival time, dose: 10.0 mg/kg/injection, schedule: Q04DX003 (ip), vehicle: saline)?
The T/C was 153 % of control.

What about the T/C (endpoint: mean survival time, dose: 10.9 mg/kg/injection, schedule: Q01DX001 (ip), vehicle: saline with Tween-80) of the same molecule?
The T/C was 122 % of control.

And the T/C (endpoint: mean survival time, dose: 10.9 mg/kg/injection, schedule: Q01DX001 (ip), vehicle: saline)?
The T/C was 122 % of control and 124 % of control.

What about the T/C (endpoint: mean survival time, dose: 12.0 mg/kg/injection, schedule: Q01DX001 (ip), vehicle: saline) of the same molecule?
The T/C was 153 % of control.

What about the T/C (endpoint: mean survival time, dose: 15.0 mg/kg/injection, schedule: Q01DX001 (ip), vehicle: saline) of the same molecule?
Its T/C is 161 % of control.

And the T/C (endpoint: mean survival time, dose: 16.0 mg/kg/injection, schedule: Q01DX001 (ip), vehicle: saline)?
Its T/C is 154 % of control.

What about the T/C (endpoint: mean survival time, dose: 16.0 mg/kg/injection, schedule: Q01DX001 (iv), vehicle: saline) of the same molecule?
Its T/C is 155 % of control.

What about the T/C (endpoint: mean survival time, dose: 16.0 mg/kg/injection, schedule: Q01DX009 (ip), vehicle: saline) of the same molecule?
Its T/C is 96 % of control.

What about the T/C (endpoint: mean survival time, dose: 16.0 mg/kg/injection, schedule: Q01DX009 (oral), vehicle: saline) of the same molecule?
The T/C was 120 % of control.

What about the T/C (endpoint: mean survival time, dose: 16.0 mg/kg/injection, schedule: Q04DX003 (ip), vehicle: saline) of the same molecule?
The T/C was 95 % of control.

What about the T/C (endpoint: mean survival time, dose: 20.0 mg/kg/injection, schedule: Q04DX003 (ip), vehicle: saline) of the same molecule?
The T/C was 124 % of control.

And the T/C (endpoint: mean survival time, dose: 22.4 mg/kg/injection, schedule: Q01DX001 (ip), vehicle: saline with Tween-80)?
The T/C was 163 % of control.

And the T/C (endpoint: mean survival time, dose: 32.0 mg/kg/injection, schedule: Q01DX001 (ip), vehicle: saline with Tween-80)?
The T/C was 89 % of control.

What about the T/C (endpoint: mean survival time, dose: 32.0 mg/kg/injection, schedule: Q01DX001 (oral), vehicle: saline) of the same molecule?
Its T/C is 154 % of control.

What about the T/C (endpoint: median survival time, dose: 1.56 mg/kg/injection, schedule: Q01DX009 (ip), vehicle: saline) of the same molecule?
Its T/C is 117 % of control.

And the T/C (endpoint: median survival time, dose: 3.0 mg/kg/injection, schedule: Q01DX009 (ip), vehicle: water)?
The T/C was 97 % of control.

And the T/C (endpoint: median survival time, dose: 3.13 mg/kg/injection, schedule: Q01DX009 (ip), vehicle: saline)?
Its T/C is 164 % of control and 178 % of control.

What about the T/C (endpoint: median survival time, dose: 6.0 mg/kg/injection, schedule: Q01DX009 (ip), vehicle: water) of the same molecule?
Its T/C is 95 % of control.

And the T/C (endpoint: median survival time, dose: 8.0 mg/kg/injection, schedule: Q01DX009 (ip), vehicle: water)?
Its T/C is 88 % of control.

And the T/C (endpoint: median survival time, dose: 12.5 mg/kg/injection, schedule: Q01DX009 (ip), vehicle: saline)?
The T/C was 88 % of control and 107 % of control.

What about the T/C (endpoint: median survival time, dose: 16.0 mg/kg/injection, schedule: Q01DX009 (ip), vehicle: water) of the same molecule?
The T/C was 77 % of control.

What about the T/C (endpoint: median survival time, dose: 20.0 mg/kg/injection, schedule: Q01DX001 (ip), vehicle: saline) of the same molecule?
Its T/C is 172 % of control.

What about the T/C (endpoint: median survival time, dose: 25.0 mg/kg/injection, schedule: Q01DX001 (ip), vehicle: saline) of the same molecule?
Its T/C is 193 % of control.
